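Each compound was tested at five concentrations against cells in 96-well plates for 48 hours. At the GI50, growth is halved.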 The source made the active and inactive calls. Cut-off read from the data, not from the text of the source: active = GI50 up to about 1.1 µM and inactive = higher.
How the values were obtained:
Assay in all cases: NCI-60 cell line screen, 48 h
BT-549 = system: BT-549
M19-MEL = system: M19-MEL
RXF 631 = system: RXF 631
KM-20L2 = system: KM-20L2
SNB-78 = system: SNB-78
DMS-273 = system: DMS-273
LXFL 529 = system: LXFL 529
DMS-114 = system: DMS-114
HOP-18 = system: HOP-18

## Cc1ccc(C2SC(=N)Nc3c2c(C)nn3C(=O)c2ccccc2O)cc1 (centres undefined)
BT-549
  GI50: > 10 µM (inactive)

## CCOC(=O)/C(C(=O)Nc1cccc(Cl)c1)=C(/N)N1CCOCC1
BT-549
  GI50: > 100 µM (inactive)

## Cc1cc(C(=C2C=CC(=[N+](C)C)C=C2)c2ccc([N+](C)(C)C)cc2)ccc1N(C)C
M19-MEL
  GI50: 5.52 µM (inactive)
RXF 631
  GI50: 7.91 µM (inactive)
KM-20L2
  GI50: 5.48 µM (inactive)
SNB-78
  GI50: 10.7 µM (inactive)
DMS-273
  GI50: 5.01 µM (inactive)
LXFL 529
  GI50: 6.98 µM (inactive)
DMS-114
  GI50: 4.67 µM (inactive)

## Cc1cc(C)nc(NS(=O)(=O)c2ccc(NC(=O)c3cccc4c(N)c5ccccc5nc34)cc2)n1
M19-MEL
  GI50: > 100 µM (inactive)
KM-20L2
  GI50: 88.7 µM (inactive)
SNB-78
  GI50: > 100 µM (inactive)
DMS-273
  GI50: > 100 µM (inactive)
LXFL 529
  GI50: > 100 µM (inactive)
DMS-114
  GI50: > 100 µM (inactive)

## CC(=O)Nc1ccc2c(c1)C(=O)c1ccccc1-2
M19-MEL
  GI50: > 100 µM (inactive)
KM-20L2
  GI50: > 100 µM (inactive)
SNB-78
  GI50: > 100 µM (inactive)
DMS-273
  GI50: > 100 µM (inactive)
LXFL 529
  GI50: > 100 µM (inactive)
DMS-114
  GI50: > 100 µM (inactive)

## Cc1ccc([N+]2=NC(c3ccc([N+](=O)[O-])cc3)=NN(c3ccccc3)C2)cc1
M19-MEL
  GI50: > 100 µM (inactive)
KM-20L2
  GI50: > 100 µM (inactive)
SNB-78
  GI50: 32.5 µM (inactive)
DMS-273
  GI50: 70.6 µM (inactive)
LXFL 529
  GI50: 42.1 µM (inactive)
DMS-114
  GI50: 40.1 µM (inactive)

## CC(CN(C)C)/C(=N\Nc1ccccc1)c1ccccc1 (centres undefined)
M19-MEL
  GI50: 1.24 µM (inactive)
KM-20L2
  GI50: 0.132 µM (active)
HOP-18
  GI50: 10.7 µM (inactive)
SNB-78
  GI50: 6.1 µM (inactive)
DMS-273
  GI50: 0.324 µM (active)
LXFL 529
  GI50: 0.0473 µM (active)
DMS-114
  GI50: 0.743 µM (active)

## Cc1ccc(S(=O)(=O)CC(=O)CC(=O)C(=O)Nc2cccc(C(F)(F)F)c2)cc1
M19-MEL
  GI50: > 100 µM (inactive)
RXF 631
  GI50: > 100 µM (inactive)
KM-20L2
  GI50: > 100 µM (inactive)
SNB-78
  GI50: > 100 µM (inactive)
DMS-273
  GI50: > 100 µM (inactive)
LXFL 529
  GI50: > 100 µM (inactive)

## COc1ccc(S(=O)(=O)N/N=C\c2cc([N+](=O)[O-])cc(I)c2O)c(OC)c1OC
M19-MEL
  GI50: 31.7 µM (inactive)
KM-20L2
  GI50: 36.2 µM (inactive)
HOP-18
  GI50: 23.3 µM (inactive)
SNB-78
  GI50: 28.6 µM (inactive)
DMS-273
  GI50: 32.4 µM (inactive)
LXFL 529
  GI50: > 10 µM (inactive)
DMS-114
  GI50: 25.1 µM (inactive)

## CC(C)N(C(=O)c1ccc(NCc2cc(O)ccc2O)cc1)C(C)C
BT-549
  GI50: 11.9 µM (inactive)

## [O-][n+]1onc(-c2ccccc2)c1CN1CCOCC1
BT-549
  GI50: > 100 µM (inactive)

## Cc1cnc2nc(-c3cccc4ccccc34)cc(O)c2c1
BT-549
  GI50: 0.0536 µM (active)

## Cc1c(/C=N/NC(=O)c2ccc(Cl)cc2)c(=O)n(-c2ccccc2)n1C
M19-MEL
  GI50: > 100 µM (inactive)
KM-20L2
  GI50: > 100 µM (inactive)
HOP-18
  GI50: > 100 µM (inactive)
SNB-78
  GI50: > 100 µM (inactive)
DMS-273
  GI50: > 100 µM (inactive)
LXFL 529
  GI50: > 100 µM (inactive)
DMS-114
  GI50: > 100 µM (inactive)

## C(=C\c1cccs1)/c1cccc(/C=C/c2cccs2)n1
BT-549
  GI50: 22 µM (inactive)

## CC(=O)O[C@]1(C)OC(=O)[C@@H](C)N1[N+](=O)[O-]
M19-MEL
  GI50: > 100 µM (inactive)
KM-20L2
  GI50: > 100 µM (inactive)
HOP-18
  GI50: > 100 µM (inactive)
SNB-78
  GI50: > 100 µM (inactive)
DMS-273
  GI50: 96.6 µM (inactive)
LXFL 529
  GI50: > 100 µM (inactive)
DMS-114
  GI50: > 100 µM (inactive)

## CC(=O)CC(=O)CCCC(=O)Nc1ccc(Cl)cc1Cl
RXF 631
  GI50: > 100 µM (inactive)
KM-20L2
  GI50: > 100 µM (inactive)
HOP-18
  GI50: 25.2 µM (inactive)
DMS-273
  GI50: > 100 µM (inactive)
LXFL 529
  GI50: > 100 µM (inactive)

## c1ccc(C2(c3cc4ccccc4[nH]3)OCCO2)nc1
BT-549
  GI50: > 100 µM (inactive)

## Cc1cccc(NC(=O)CC#N)c1Cl
M19-MEL
  GI50: > 100 µM (inactive)
KM-20L2
  GI50: > 100 µM (inactive)
SNB-78
  GI50: > 100 µM (inactive)
DMS-273
  GI50: > 100 µM (inactive)
LXFL 529
  GI50: > 100 µM (inactive)

## Cn1c(=O)c2nc3nnc(C#N)c(N)n3c2n(C)c1=O
BT-549
  GI50: > 100 µM (inactive)

## CC(=O)OC1CCC2(C)C(CCC3C2CC(=O)C2(C)C3CC(N3CC3)C2C(C)=O)C1 (centres undefined)
BT-549
  GI50: 17.4 µM (inactive)

## COC(=O)[C@H]1[C@@H](C(C)C)O[C@@H](C(C)C)O[C@H]1C(F)(F)F
BT-549
  GI50: > 100 µM (inactive)

## COC(=O)[C@]1(c2cc3ccccc3[nH]2)CC2CN(C(=O)OCc3ccccc3)C1CC2=O (some centres undefined)
BT-549
  GI50: 29.3 µM (inactive)

## NCCOc1ccc(/C(=C(/Cl)c2ccccc2)c2ccccc2)cc1
M19-MEL
  GI50: 10.7 µM (inactive)
RXF 631
  GI50: 11.4 µM (inactive)
KM-20L2
  GI50: 6.62 µM (inactive)
SNB-78
  GI50: 10 µM (inactive)
DMS-273
  GI50: 10.6 µM (inactive)
LXFL 529
  GI50: 7.1 µM (inactive)
DMS-114
  GI50: 12.9 µM (inactive)

## O=C1C=C(NCC(c2ccccc2)c2ccccc2)C(=O)c2ncccc21
BT-549
  GI50: 1.06 µM (active)

## Cc1cc(NS(=O)(=O)c2ccc(NC(=O)c3cccc4c(NNc5ccc(S(=O)(=O)N=C(N)N)cc5)c5ccccc5nc34)cc2)no1
BT-549
  GI50: 57.8 µM (inactive)
